Assay results published in publication PMC7189608, “FaPAO5 regulates Spm/Spd levels as a signaling during strawberry fruit ripening” (Plant Direct, 2020).

Target: T1, FaPAO5
T1 construct: 105 kDa fusion protein
Assay: isothermal titration calorimetry
Type: binding, Fragaria x ananassa
Conditions: pH 7.4, 30 °C, 200 mM NaCl, 20 mM Tris, 0.5 mM EDTA, 10 mM maltose; MBP fusion protein (10 µM in Methods, 20 µM in Results); ligand 100 µM
From the text: isothermal titration calorimetry on FaPAO5 | the binding of FaPAO5 to Spm and Spd followed a saturation kinetics curve

Question: For `NCCCCNCCCN` [Spd], which Kd is on record?
Answer: 290 nM

Question: Which Kd does the source give for `NCCCNCCCCNCCCN` [Spm] here?
Answer: 210 nM
